Laboratory results as given in US4454330A, “Two-functional-group-containing terpenoids, processes for the preparation of the same, and anti-ulcer agents containing the same” (Eisai Co., Ltd., priority 1980, dated 1984).

Test system: cold-restaint stress ulcer
Assay: Effect on cold-restraint stress ulcer (Levine' method, rats)
Assay type: in vivo, rats (SD family
Settings: SD rats, female, about 170 g, 8-10 weeks age
Experimental: (1) Effect on Cold-Restaint Stress Ulcer
The inhibition effect of the test compound on the cold-restaint stress ulcer was determined according to the Levine' method using rats (SD family, female, weight about 170 g, 8-10 weeks age). The test compounds are set forth below.

Row | SMILES | Inhibition Ratio (%) on the occurrence of the cold restrictive stress ulcer [%]
1 | CC(=CCO)CCC=C(C)CCC=C(C)C(=O)O [Compound A, 12-Hydroxy-2,6,10-trimethyl-2,6,10-dodecatrienoic acid] | 74.6
2 | CC(=CCO)CCC=C(C)CCC=C(C)CCC=C(C)C(=O)O [Compound C, 16-Hydroxy-2,6,10,14-tetramethyl-2,6,10,14-hexadecatetraenoic acid] | 79.2
3 | CC(=CCO)CCC=C(C)CCC=C(C)CCC=C(C)CCC=C(C)C(=O)O [Compound D, 20-Hydroxy-2,6,10,14,18-pentamethyl-2,6,10,14,18-eicosapentaenoic acid] | 49.5
